Here are results for 10 molecules from patent US6743446B2, “Methods for stabilizing biologically active agents encapsulated in biodegradable controlled-release polymers” (The Ohio State University Research Foundation, priority 1999, dated 2004).

Data set [1] can be described thus: VCR and VBL stability and release in PLGA microspheres by HPLC. Format: physicochemical. The protocol:
All other reagents and solvents were of analytical grade or purer and purchased from commercial suppliers. Microspheres Preparation Microspheres were prepared by a standard oil-in-oil emulsion-solvent extraction method (17). […] The resulting solution or suspension was added drop-wise to 25 ml of oil (95% cottonseed oil and 5% Span 85 emulsifier) stirred at 500 rpm and room temperature. After 2.5 h of microsphere hardening. 40 ml of petroleum ether (bp: 50 to 100° C.) were added to the emulsion to extract CAN. The emulsion was stirred for additional 15 min, the particles were collected by filtration, and washed 3 times with petroleum ether. The hardened microspheres were flash-frozen with liquid nitrogen and lyophilized with a Labconco Freezone 6 system for 1 day.
The HPLC system consisted of the following: a 510 pump, a 717 Plus autosampler, and a 486 UV detector (waters, Milford, Mass.). […] The mobile phase was composed of aqueous solution of sodium phosphate (10 mM) and methanol 40:60 (v/v) (pH 7.0). For UV detection, the wavelength was set to 298 nm.
Drug release from microspheres was carried out in PBS (127 mM NaCl, 3 mM KCl, 8 mM Na2HPO4, 1 mM KH2PO4, pH 7.4) containing Tween 80 (0.02% w/w/) (PBST) at 37° C. under perfect sink conditions. […] Microspheres were weighed and dissolved in a 50% (v/v) ACN water solution. The precipitated polymer and salts were spun down by brief centrifugation. An aliquot of the supernatant containing drug was removed and analyzed by HPLC.

Data set [2] can be described thus: pH of saturated basic salt suspension after addition of 1 N HCl. It counts as physicochemical. The conditions noted are these: acid added to the saturated suspension with excess salt, 37° C., 3 days. The text has this:
The difference of the neutralization effect from the salts is also reflected in the different water contents of their PLGA devices.

Data set [3] can be described thus: pH measurement of saturated basic salts in water. Format: physicochemical. The conditions noted are these: excess basic salt suspended in water, 37° C., 7 days. The procedure:
The suspension was then incubated at 37° C. for 7 days. The pH of the supernatant was determined with a Corning 430 pH meter (Corning Inc., NY).

Data set [4] concerns the target T1, BSA (Bos taurus, UniProt P02769).
T1 construct: purchased Sigma Chemical Co. (St. Louis, Mo.) A-3059
Put plainly: BSA release and aggregation in PLGA millicylinders incubated in PBST at 37° C. Format: physicochemical, bovine. The protocol:
A solvent extrusion method similar to that used previously by our group for intraocular implants was used to prepare the PLGA cylinders with a diameter on the millimeter scale, which we term millicylinders. Briefly, a uniform suspension of sieved protein powder (<90 μm) with or without basic salt in 50% (w/w) acetone-PLGA 50/50 solution was loaded in a syringe and extruded into a silicone tubing (I.D. 0.8 mm) at about 0.1 ml/min. The solvent extruded suspension was dried at room temperature for 24 h and then dried in a vacuum oven at 45° C. for another 24 h before testing. The protein loading was calculated as the percentage of amount of BSA versus the total weight of mixture (i.e., protein, polymer, and salt).
Release of protein was carried out in PBST (which consists of PBS (7.74 mM Na2HPO4, 2.26 mM NaH2O4, 137 mM NaCl, and 3 mM KCl, pH 7.4), and 0.02% w/v Tween® 80) at 37° C. under perfect sink conditions. Millicylinders (10×0.8 mm, 5-10 mg or microspheres (about 20 mg) were placed in I ml of the release medium and the medium was replaced at each time point. The protein content was determined by using Coornassie plus protein assay reagent, which is also compatible with denaturing agents (e.g., 6 M urea) and reducing agents (e.g., 10 mM DTT).
Protein stability was assessed by the percentage of water insoluble non-covalent BSA aggregates generated within the implants versus the initial encapsulated protein. Protein stability within PLGA implants was analyzed as follows: First, millicylinders with a length of 1 cm were incubated under 80% and 96% relative humidity (RH) at 37° C. for 21 days. Then, the polymer was dissolved in acetone and centrifuged to spin down the protein. The remaining protein pellet was washed three times with acetone and then air-dried. The final protein pellet was analyzed as in Analysis of the Protein Extracted from PLGA Implants. The protein remaining in PLGA implants after release in PBST at 37° C. for 28 days was also extracted similarly and analyzed as above.
The BSA pellet extracted from PLGA implants was first reconstituted in PBST and incubated at 37° C. overnight to determine the soluble protein fraction remaining in the polymer. Any remaining aggregates were collected by centrifugation again, and brought up in the denaturing solvent (PBST/6 M urea/1 mM EDTA) and incubated at 37° C. for 30 mm to dissolve non-covalent bonded BSA aggregates. Then, any final undissolved BSA aggregates were collected again and dissolved in the reducing solvent (the denaturing solvent plus 10 mM DTT) to dissolve any disulfide-bonded aggregates.
For quantitation of soluble BSA, a modified Bradford assay was used as follows: 10 μl of standard or sample in PBST was added to 250 μl of Coomassle reagent/well on a 96-well plate and then the plate was read at 595 nm using a Dynex MRX microplate reader (Dynex Technology, Inc., Chantilly, Va.). The concentration range of the standard curve was 50 to 1000 μg/ml. For quantitation of non-covalent and covalent BSA aggregates, the solvents used for preparation of standards and samples were 6 M urea and 6 M urea/10 mM DTT, respectively.
The solvent-extruded suspension was dried at room temperature (24 h) and then dried in a vacuum oven at 45° C. (24 h). For preparation of bFGF millicylinders, bFGF was combined with heparin, sucrose and BSA additives at a weight ratio (additive bFGF) of 1, 180, and 1000, respectively, in 0.5 mM EDTA and 10 mM sodium phosphate buffer (pH 7.4). The solution was lyophilized for 2 days at room temperature using a Labconco Freeze Dry System (Kansas City, Mo.) to a fine powder with 4% moisture (determined by a Karl Fisher Titrator (Model DL 18, Mettler-Toledo Inc., NJ)) and sieved before suspension in PLGA-acetone and extrusion. For preparation of […] millicylinders, solutions of BMP-2 combined with BSA or gum arabic (Sigma, St. Louis, Mo.) were similarly lyophilized and sieved. The millicylinders; were prepared in the same way as for BSA/PLGA millicylinders. […]

Data set [5] concerns the target T1, BSA. Put plainly: BSA release and aggregation in W/O/W PLGA microspheres in PBST at 37° C. Format: physicochemical, bovine.
Another data set has as its target tPA (Homo sapiens, UniProt P00750). Put plainly: tPA release from PLGA millicylinders by activity analysis. Format: physicochemical. The protocol: Here, by using this rationale, tPA was successfully encapsulated into PLGA implants. tPA, a protein with a MW of ˜60 K Da is a tissue type endogenous serine proteaese involved in thrombi dissolution. The FDA has approved the use of recombinant tPA in the treatment of myocardial infarction. Controlled release systems for local delivery was developed by using hydrogel to control wound healing. A multi-drug controlled release implant with tPA encapsulated was also tested for the intraocular management of proliferative vitroretinopahty (PVR). […] Arginine hydrochloride and BSA were added in the release medium to improve the stability of released tPA. The release profile and active residue of tPA after release was evaluated by activity analysis. […] As far as is known, only very few protein formulations have shown continuous and complete release over one month period without losing activity.

Data set [6] has as its target T1, BSA. Put plainly: Simulation of BSA instability in the polymer microclimate. The conditions noted are these: Simulated: lyophilized BSA at pH 2 under 86% R.H. at 37° C. Format: physicochemical, bovine. The protocol: Three experiments were designed to simulate the potential deleterious conditions in PLGA devices. […] At various times, the protein was reconstituted in PBST and examined for the type of aggregates as described above. To examine the effect of water, water was directly added to lyophilized BSA at pH 2, sealed and then incubated at 37° C. for 1 week, and analyzed as above (16). […] Loss of BSA content from solution was used to determine the extent of BSA adsorption to the polymer.

Where a name gives a salt, the structure may show the parent alone. Bounds are passed on as bounds.

T1 sequence (P02769 25-607): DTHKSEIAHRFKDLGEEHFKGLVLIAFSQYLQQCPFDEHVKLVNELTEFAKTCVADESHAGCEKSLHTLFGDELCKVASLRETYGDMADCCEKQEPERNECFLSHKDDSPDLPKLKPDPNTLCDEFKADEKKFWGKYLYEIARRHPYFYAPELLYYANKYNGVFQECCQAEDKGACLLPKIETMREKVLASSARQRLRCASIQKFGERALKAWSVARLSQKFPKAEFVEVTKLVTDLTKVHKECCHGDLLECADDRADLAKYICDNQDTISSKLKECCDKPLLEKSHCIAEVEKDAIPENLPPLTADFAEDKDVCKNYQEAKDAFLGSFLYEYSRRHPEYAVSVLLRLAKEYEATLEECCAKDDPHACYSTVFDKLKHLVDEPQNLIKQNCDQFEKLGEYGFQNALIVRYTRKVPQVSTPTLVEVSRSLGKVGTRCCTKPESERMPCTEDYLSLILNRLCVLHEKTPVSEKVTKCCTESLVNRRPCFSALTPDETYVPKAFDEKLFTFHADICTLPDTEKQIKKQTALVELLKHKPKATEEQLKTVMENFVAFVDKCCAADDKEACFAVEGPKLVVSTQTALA
Chain of tPA (P00750 36-562): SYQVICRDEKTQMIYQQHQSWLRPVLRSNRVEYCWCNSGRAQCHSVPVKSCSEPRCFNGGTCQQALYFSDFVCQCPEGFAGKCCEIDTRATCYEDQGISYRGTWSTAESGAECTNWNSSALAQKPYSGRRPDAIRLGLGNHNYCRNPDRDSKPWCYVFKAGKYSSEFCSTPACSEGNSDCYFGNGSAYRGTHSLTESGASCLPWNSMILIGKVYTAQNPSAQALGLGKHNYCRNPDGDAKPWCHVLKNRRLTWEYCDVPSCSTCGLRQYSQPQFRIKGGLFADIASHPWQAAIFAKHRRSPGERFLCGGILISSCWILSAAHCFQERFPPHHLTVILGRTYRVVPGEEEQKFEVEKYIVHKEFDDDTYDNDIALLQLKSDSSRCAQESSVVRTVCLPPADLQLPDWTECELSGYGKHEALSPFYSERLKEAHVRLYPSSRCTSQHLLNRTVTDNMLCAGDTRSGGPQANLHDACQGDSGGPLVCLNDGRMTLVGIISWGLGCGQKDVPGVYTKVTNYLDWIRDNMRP

Turning to `CC[C@]1(O)C[C@@H]2CN(CCc3c([nH]c4ccccc34)[C@@](C(=O)OC)(c3cc4c(cc3OC)N(C)[C@H]3[C@@](O)(C(=O)OC)[C@H](OC(C)=O)[C@]5(CC)C=CCN6CC[C@]43[C@@H]65)C2)C1` [VBL, vinblastine sulfate], the “stability of encapsulated drug” value in data set [1] (PLGA (50% D,L lactide content) microspheres) is reported as “highly stabilized”.
Consider `O=C([O-])[O-].[Zn+2]` [ZnCO3], for which the “drug degraded to the basic product during microsphere preparation” value in data set [1] (VCR PLGA microspheres with co-encapsulated base) is 3%. Also, the “pH after addition of 100 μl of 1 N HCl” value in data set [2] is on record as 5.36. Besides, the “pH of saturated solution” value in data set [3] is 7.34.
In the case of `O=C([O-])[O-].[Ca+2]` [CaCO3], the “pH after addition of 100 μl of 1 N HCl” value in data set [2] is reported as 6.07. In addition, in data set [3], the “pH of saturated solution” value stood at 9.26.
For `O=C([O-])[O-].[Mg+2]` [MgCO3], the “stabilization of BSA” value at BSA [4] (PLGA millicylinders) is reported as “stabilized BSA much better than the Mg(OH)2”. Moreover, the Released entry on BSA [5] (3% BSA/PLGA50/50 (0.20 dl/g) microspheres, 51-day release in PBST at 37° C.) is “more than 50%”. Moreover, at BSA [5] (4% BSA/PLGA50/50 (0.64 dl/g) W/O/W microspheres with basic salt), the “BSA release after the first day burst over 28 days” value is given as “up to 10%”. In addition, on BSA [5] (BSA/PLGA (0.20 dl/g) microspheres, data not shown), the burst amounted to 32%. Further, the “pH after addition of 100 μl of 1 N HCl” value in data set [2] was 9.01. In addition, in data set [3], the “pH of saturated solution” value amounted to 9.75.
Regarding “tPA: tissue type endogenous serine protease, encapsulated as 10% tPA powder in PLGA millicylinders”, the “one month release of tPA” value is recorded as 98.0±0.2% with tPA (10% tPA powder in PLGA millicylinders with 3% Mg(OH)2) and 77.1±2.6% in the data set with tPA (10% tPA powder in PLGA millicylinders without Mg(OH)2).
Turning to `[OH-].[OH-].[Zn+2]` [Zn(OH)2], the “pH after addition of 100 μl of 1 N HCl” value in data set [2] worked out at 5.86. Besides, the “pH of saturated solution” value in data set [3] came to 8.85.
The like results for `[Ca+2].[OH-].[OH-]` [Ca(OH)2] were, in that order, 12.20 and 12.4.
For Bovine serum albumin [BSA], the “initially encapsulated BSA that formed non-covalent aggregates” value with BSA [4] (15% BSA/PLGA implants without base, 2 weeks release in PBST at 37° C., previous results) is recorded as “more than 60%”. The “Aggregates soluble in denaturing solvent” value is more than 98% with BSA [4] (Encapsulated: 15% BSA in PLGA millicylinders in PBST at 37° C., PBST with 6M urea, 1 mM EDTA) and more than 94% with BSA [6] (PBST with 6M urea, 1 mM EDTA). The Peptide fragmentation was 25, 40, and 55 kDa in the data set with BSA [4] (Encapsulated: 15% BSA in PLGA millicylinders in PBST at 37° C., SDS-PAGE); 25, 40, and 55 kDa with BSA [6] (SDS-PAGE). Further, the entries for the “Time to 50% aggregation” value in the data set with BSA [4] (Encapsulated: 15% BSA in PLGA millicylinders incubated in PBST at 37° C.) and in the data set with BSA [6] were 12 days and 7 days, respectively. Moreover, the “protein released in 1 day” value at BSA [4] (PLGA millicylinders, 20% BSA loading without the base) is more than 90%. Besides, in the data set with BSA [5] (BSA in PLGA microspheres by solvent evaporation, no base), the non-covalent aggregates is given as 25-75%. The molecule also registered a disulfide-bonded aggregates with BSA [5] (BSA in PLGA microspheres, some control experiments) of less than 5%.
As for `O=P([O-])([O-])[O-].O=P([O-])([O-])[O-].[Zn+2].[Zn+2].[Zn+2]` [Zn3(PO4)2], the “pH after addition of 100 μl of 1 N HCl” value in data set [2] came out at 1.53. For the same molecule, the “pH of saturated solution” value in data set [3] is reported as 6.82.
Turning to `O=P([O-])([O-])[O-].O=P([O-])([O-])[O-].[Ca+2].[Ca+2].[Ca+2]` [Ca3(PO4)2], in data set [2], the “pH after addition of 100 μl of 1 N HCl” value is 3.71. Moreover, in data set [3], the “pH of saturated solution” value came to 7.77.
